Experimental data: the NIST ThermoML archive (doi:10.1021/acs.jced.8b00387)
Numbers after ± are expanded uncertainties.

Experiment: xn = mol fraction of the nth substance listed
Details: for viscosity / mass density / speed of sound: 102 kPa, Liquid; for viscosity: Concentric cylinders viscometry; for mass density: Vibrating tube method; for speed of sound: Frequency=3 MHz, Single path-length method; for surface tension liquid-gas: 294 K, Pendant drop shape

CC(CC(C)(C)C)CC(C)(C)C [2,2,4,6,6-pentamethylheptane] + CCCCCCc1ccccc1
Details | mass density [kg/m3] | speed of sound [m/s] | viscosity [mPa·s]
253.15 K, x2 = 0.1 | 784.1 ± 2 | – | 3 ± 0.06
253.15 K, x2 = 0.2065 | 795 ± 2 | – | 3.03 ± 0.06
253.15 K, x2 = 0.3009 | 804.9 ± 2 | – | 3.08 ± 0.06
253.15 K, x2 = 0.3968 | 815.2 ± 2 | – | 3.19 ± 0.06
253.15 K, x2 = 0.5001 | 826.8 ± 2 | – | –
253.15 K, x2 = 0.5004 | – | – | 3.31 ± 0.06
253.15 K, x2 = 0.6 | 838.5 ± 2 | – | 3.47 ± 0.06
253.15 K, x2 = 0.6998 | 850.5 ± 2 | – | 3.7 ± 0.07
253.15 K, x2 = 0.7997 | 863.5 ± 2 | – | 3.93 ± 0.07
253.15 K, x2 = 0.8999 | 875.7 ± 2 | – | 4.2 ± 0.07
288.15 K, x2 = 0.1 | 758.47 ± 0.73 | 1238.9 ± 1.1 | –
288.15 K, x2 = 0.2065 | 769.17 ± 0.73 | 1255.2 ± 1.1 | –
288.15 K, x2 = 0.3009 | 778.97 ± 0.73 | 1270.3 ± 1.2 | –
288.15 K, x2 = 0.3968 | 789.42 ± 0.73 | 1286.2 ± 1.2 | –
288.15 K, x2 = 0.5001 | 800.56 ± 0.74 | – | –
288.15 K, x2 = 0.5004 | – | 1302.9 ± 1.2 | –
288.15 K, x2 = 0.6 | 812.08 ± 0.74 | 1320.1 ± 1.2 | –
288.15 K, x2 = 0.6998 | 824 ± 0.74 | 1338 ± 1.3 | –
288.15 K, x2 = 0.7997 | 836.31 ± 0.74 | 1356.4 ± 1.3 | –
288.15 K, x2 = 0.8999 | 849.13 ± 0.75 | 1375.5 ± 1.3 | –
293.15 K, x2 = 0.1 | 754.83 ± 0.73 | 1219 ± 1.1 | 1.31 ± 0.02
293.15 K, x2 = 0.2065 | 765.51 ± 0.73 | 1235.7 ± 1.1 | 1.31 ± 0.02
293.15 K, x2 = 0.3009 | 775.3 ± 0.73 | 1250.6 ± 1.2 | 1.31 ± 0.02
293.15 K, x2 = 0.3968 | 785.5 ± 0.73 | 1266 ± 1.2 | 1.35 ± 0.02
293.15 K, x2 = 0.5001 | 796.87 ± 0.74 | – | –
293.15 K, x2 = 0.5004 | – | 1283.3 ± 1.2 | 1.36 ± 0.02
293.15 K, x2 = 0.6 | 808.37 ± 0.74 | 1300.6 ± 1.2 | 1.4 ± 0.02
293.15 K, x2 = 0.6998 | 820.27 ± 0.74 | 1318.6 ± 1.3 | 1.46 ± 0.02
293.15 K, x2 = 0.7997 | 832.57 ± 0.74 | 1337.1 ± 1.3 | 1.51 ± 0.03
293.15 K, x2 = 0.8999 | 845.36 ± 0.75 | 1356.2 ± 1.3 | 1.56 ± 0.02
303.15 K, x2 = 0.1 | 747.53 ± 0.73 | 1180 ± 1.1 | 1.12 ± 0.02
303.15 K, x2 = 0.2065 | 758.19 ± 0.73 | 1197.2 ± 1.1 | 1.13 ± 0.02
303.15 K, x2 = 0.3009 | 767.96 ± 0.73 | 1211.8 ± 1.2 | 1.14 ± 0.02
303.15 K, x2 = 0.3968 | 778.14 ± 0.73 | 1227.4 ± 1.2 | 1.15 ± 0.02
303.15 K, x2 = 0.5001 | 789.48 ± 0.74 | – | –
303.15 K, x2 = 0.5004 | – | 1244.8 ± 1.2 | 1.17 ± 0.02
303.15 K, x2 = 0.6 | 800.94 ± 0.74 | 1262.2 ± 1.2 | 1.2 ± 0.02
303.15 K, x2 = 0.6998 | 812.8 ± 0.74 | 1280.3 ± 1.3 | 1.25 ± 0.02
303.15 K, x2 = 0.7997 | 825.06 ± 0.74 | 1299 ± 1.3 | 1.29 ± 0.02
303.15 K, x2 = 0.8999 | 837.82 ± 0.75 | 1318.2 ± 1.3 | 1.33 ± 0.02
313.15 K, x2 = 0.1 | 740.2 ± 0.73 | 1141.9 ± 1.1 | 0.957 ± 0.021
313.15 K, x2 = 0.2065 | 750.84 ± 0.73 | 1159.3 ± 1.1 | 0.962 ± 0.021
313.15 K, x2 = 0.3009 | 760.6 ± 0.73 | 1174 ± 1.2 | 0.967 ± 0.022
313.15 K, x2 = 0.3968 | 770.75 ± 0.73 | 1189.7 ± 1.2 | 0.979 ± 0.022
313.15 K, x2 = 0.5001 | 782.06 ± 0.74 | – | –
313.15 K, x2 = 0.5004 | – | 1207.2 ± 1.2 | 1 ± 0.02
313.15 K, x2 = 0.6 | 793.5 ± 0.74 | 1224.7 ± 1.2 | 1.02 ± 0.02
313.15 K, x2 = 0.6998 | 805.33 ± 0.74 | 1243 ± 1.3 | 1.06 ± 0.02
313.15 K, x2 = 0.7997 | 817.55 ± 0.74 | 1261.7 ± 1.3 | 1.09 ± 0.02
313.15 K, x2 = 0.8999 | 830.26 ± 0.75 | 1281 ± 1.3 | 1.12 ± 0.02
323.15 K, x2 = 0.1 | 732.84 ± 0.73 | 1104.7 ± 1.1 | 0.848 ± 0.021
323.15 K, x2 = 0.2065 | 743.45 ± 0.73 | 1122.2 ± 1.1 | 0.853 ± 0.021
323.15 K, x2 = 0.3009 | 753.21 ± 0.73 | 1136.9 ± 1.2 | 0.861 ± 0.021
323.15 K, x2 = 0.3968 | 763.34 ± 0.73 | 1152.8 ± 1.2 | 0.873 ± 0.021
323.15 K, x2 = 0.5001 | 774.63 ± 0.74 | – | –
323.15 K, x2 = 0.5004 | – | 1170.4 ± 1.2 | 0.889 ± 0.021
323.15 K, x2 = 0.6 | 786.03 ± 0.74 | 1188.1 ± 1.2 | 0.911 ± 0.021
323.15 K, x2 = 0.6998 | 797.82 ± 0.74 | 1206.4 ± 1.3 | 0.943 ± 0.022
323.15 K, x2 = 0.7997 | 810.01 ± 0.74 | 1225.2 ± 1.3 | 0.964 ± 0.022
323.15 K, x2 = 0.8999 | 822.68 ± 0.75 | 1244.6 ± 1.3 | 0.992 ± 0.022
333.15 K, x2 = 0.1 | 725.44 ± 0.73 | 1068.5 ± 1.1 | 0.749 ± 0.021
333.15 K, x2 = 0.2065 | 736.04 ± 0.73 | 1085.8 ± 1.1 | 0.753 ± 0.021
333.15 K, x2 = 0.3009 | 745.77 ± 0.73 | 1101 ± 1.2 | 0.758 ± 0.021
333.15 K, x2 = 0.3968 | 755.89 ± 0.73 | 1117 ± 1.2 | 0.768 ± 0.021
333.15 K, x2 = 0.5001 | 767.15 ± 0.74 | – | –
333.15 K, x2 = 0.5004 | – | 1134.6 ± 1.2 | 0.783 ± 0.021
333.15 K, x2 = 0.6 | 778.54 ± 0.74 | 1152.5 ± 1.2 | 0.803 ± 0.021
333.15 K, x2 = 0.6998 | 790.29 ± 0.74 | 1170.8 ± 1.3 | 0.828 ± 0.021
333.15 K, x2 = 0.7997 | 802.45 ± 0.74 | 1189.6 ± 1.3 | 0.844 ± 0.021
333.15 K, x2 = 0.8999 | 815.08 ± 0.75 | 1209.1 ± 1.3 | 0.87 ± 0.021

Details | surface tension liquid-gas [mN/m]
x2 = 0.1 | 21.9 ± 0.3
x2 = 0.2065 | 22.5 ± 0.3
x2 = 0.3009 | 23.1 ± 0.3
x2 = 0.3968 | 23.5 ± 0.3
x2 = 0.5001 | 24.1 ± 0.4
x2 = 0.6 | 24.7 ± 0.3
x2 = 0.6998 | 25.5 ± 0.4
x2 = 0.7997 | 26.5 ± 0.4
x2 = 0.8999 | 27.7 ± 0.4
